ChEMBL document CHEMBL1201862, “PubChem BioAssay data set” (2004)
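96-well plates; 48 h exposure; 5 concentrations. Endpoints by linear interpolation between flanking doses. Not reached: highest tested concentration assigned. GI50 is the concentration that inhibits growth by half.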 Activity calls are given as the source filed them. Rule as the data show it: active = GI50 up to about 1.1 µM and inactive = higher.

What was measured:
Test in all cases: inhibition of tumour cell growth, NCI panel, 48 h
[1] = test system: XF498
[2] = test system: OVCAR-8
[3] = test system: SR
[4] = test system: K562
[5] = test system: OVCAR-3
[6] = test system: SK-MEL-28
[7] = test system: HL-60
[8] = test system: M19-MEL
[9] = test system: HCC 2998
[10] = test system: A549
[11] = test system: DMS-114
[12] = test system: DLD-1
[13] = test system: SN12C
[14] = test system: IGROV-1
[15] = test system: SNB-75
[16] = test system: CCRF-CEM
[17] = test system: EKVX
[18] = test system: NCI/ADR-RES
[19] = test system: PC-3
[20] = test system: BT-549

| SMILES | GI50 [1] | GI50 [2] | GI50 [3] | GI50 [4] | GI50 [5] | GI50 [6] | GI50 [7] | GI50 [8] | GI50 [9] | GI50 [10] | GI50 [11] | GI50 [12] | GI50 [13] | GI50 [14] | GI50 [15] | GI50 [16] | GI50 [17] | GI50 [18] | GI50 [19] | GI50 [20] |
| --- | --- | --- | --- | --- | --- | --- | --- | --- | --- | --- | --- | --- | --- | --- | --- | --- | --- | --- | --- | --- |
| CC(CC(=O)Nc1ccc(NC(=O)CC(C)/N=N\C(N)=O)cc1)/N=N\C(N)=O (stereo unspecified) | > 100 µM (inactive) | > 100 µM (inactive) | 22.8 µM (inactive) | > 100 µM (inactive) | > 100 µM (inactive) | > 100 µM (inactive) | > 100 µM (inactive) | > 100 µM (inactive) | > 100 µM (inactive) | > 100 µM (inactive) | 15.6 µM (inactive) | 34.5 µM (inactive) | > 100 µM (inactive) | > 100 µM (inactive) | > 100 µM (inactive) | > 100 µM (inactive) | > 100 µM (inactive) | – | – | – |
| C=C(C(=C)N1N=NC2C3CCC(C3)C21)N1N=NC2C3CCC(C3)C21 (stereo unspecified) | > 100 µM (inactive) | > 100 µM (inactive) | 38.7 µM (inactive) | 65.2 µM (inactive) | > 100 µM (inactive) | > 100 µM (inactive) | 16.9 µM (inactive) | > 100 µM (inactive) | > 100 µM (inactive) | > 100 µM (inactive) | > 100 µM (inactive) | > 100 µM (inactive) | > 100 µM (inactive) | > 100 µM (inactive) | 55.1 µM (inactive) | 24.9 µM (inactive) | – | – | – | – |
| COc1ccccc1C(=O)N(Cc1ccccc1)c1ccc(Cl)c(C(=O)OC(C)C)c1 | 14.2 µM (inactive) | 27.8 µM (inactive) | – | 6.89 µM (inactive) | 17.7 µM (inactive) | 41.7 µM (inactive) | 9.4 µM (inactive) | 25.8 µM (inactive) | 18.2 µM (inactive) | 19.4 µM (inactive) | 12.6 µM (inactive) | 18.1 µM (inactive) | 27.6 µM (inactive) | 25.8 µM (inactive) | 19.7 µM (inactive) | 35.5 µM (inactive) | 16.7 µM (inactive) | 20.2 µM (inactive) | 7.53 µM (inactive) | 34.4 µM (inactive) |
| O=C1c2cccc(O)c2C(=O)c2c(O)cccc21 [DANTHRON] | > 100 µM (inactive) | > 100 µM (inactive) | 43.3 µM (inactive) | 92.9 µM (inactive) | 28.3 µM (inactive) | > 100 µM (inactive) | – | 3.66 µM (inactive) | 88.7 µM (inactive) | 56.1 µM (inactive) | 38 µM (inactive) | 45 µM (inactive) | > 100 µM (inactive) | > 100 µM (inactive) | > 100 µM (inactive) | > 100 µM (inactive) | 98.9 µM (inactive) | – | – | – |
| COC1=C(N=[N+]=[N-])C(=O)c2ncccc2C1=O | 4.74 µM (inactive) | 3.47 µM (inactive) | 2.36 µM (inactive) | 2.84 µM (inactive) | 5.57 µM (inactive) | 14.3 µM (inactive) | 0.962 µM (active) | 1.91 µM (inactive) | 17.1 µM (inactive) | 16.6 µM (inactive) | 6.85 µM (inactive) | 1.65 µM (inactive) | 15.5 µM (inactive) | 5.38 µM (inactive) | 13.1 µM (inactive) | 0.401 µM (active) | 8.61 µM (inactive) | 10 µM (inactive) | 15.5 µM (inactive) | 10.8 µM (inactive) |
| C/C(=N\NS(=O)(=O)c1ccccc1)c1ccc(Cl)c(Cl)c1 | > 100 µM (inactive) | 40.6 µM (inactive) | 62.2 µM (inactive) | 86.5 µM (inactive) | 25.3 µM (inactive) | 63.4 µM (inactive) | 97.3 µM (inactive) | 57.4 µM (inactive) | 71.1 µM (inactive) | 46.2 µM (inactive) | 39.2 µM (inactive) | 41.8 µM (inactive) | 45.4 µM (inactive) | 72.9 µM (inactive) | 50 µM (inactive) | > 100 µM (inactive) | 67.3 µM (inactive) | – | – | – |
| O=C1C2Nc3ccccc3SC2C(=O)N1c1cccc([N+](=O)[O-])c1 (stereo unspecified) | > 100 µM (inactive) | > 64 µM (inactive) | > 100 µM (inactive) | > 100 µM (inactive) | > 100 µM (inactive) | > 100 µM (inactive) | > 100 µM (inactive) | > 100 µM (inactive) | 10.7 µM (inactive) | 98.9 µM (inactive) | 44.1 µM (inactive) | 48.9 µM (inactive) | > 86.9 µM (inactive) | > 100 µM (inactive) | > 100 µM (inactive) | 86.7 µM (inactive) | > 100 µM (inactive) | – | – | – |
| Nc1ncnc2c1N=CN(Oc1ccccc1)N2 | > 100 µM (inactive) | > 100 µM (inactive) | > 100 µM (inactive) | > 100 µM (inactive) | > 100 µM (inactive) | > 100 µM (inactive) | – | > 100 µM (inactive) | – | > 100 µM (inactive) | > 100 µM (inactive) | > 100 µM (inactive) | 21.5 µM (inactive) | > 100 µM (inactive) | 14 µM (inactive) | – | > 100 µM (inactive) | – | – | – |
| O=S(=O)(O)c1cc(/N=N/c2cc(S(=O)(=O)O)c3ccccc3c2O)ccc1/C=C/c1ccc(/N=N/c2cc(S(=O)(=O)O)c3ccccc3c2O)cc1S(=O)(=O)O | > 100 µM (inactive) | > 755 µM (inactive) | 27 µM (inactive) | 30.1 µM (inactive) | > 553 µM (inactive) | 594 µM (inactive) | 18.2 µM (inactive) | > 100 µM (inactive) | > 100 µM (inactive) | > 480 µM (inactive) | > 100 µM (inactive) | > 100 µM (inactive) | > 743 µM (inactive) | > 399 µM (inactive) | > 458 µM (inactive) | 20.6 µM (inactive) | > 399 µM (inactive) | 427 µM (inactive) | 150 µM (inactive) | 284 µM (inactive) |
| COC1CC(n2cnc3c(N)ncnc32)OC1CO (stereo unspecified) | > 100 µM (inactive) | > 100 µM (inactive) | > 100 µM (inactive) | > 100 µM (inactive) | > 100 µM (inactive) | > 100 µM (inactive) | > 100 µM (inactive) | > 100 µM (inactive) | > 100 µM (inactive) | > 100 µM (inactive) | > 100 µM (inactive) | > 100 µM (inactive) | – | > 100 µM (inactive) | > 100 µM (inactive) | 56 µM (inactive) | – | – | – | – |
| CCOc1ccc(NC(=O)CC2SC(Nc3ccc(C)cc3)=NC2=O)cc1 (stereo unspecified) | > 100 µM (inactive) | > 100 µM (inactive) | 50.9 µM (inactive) | – | > 100 µM (inactive) | > 100 µM (inactive) | – | > 100 µM (inactive) | – | > 100 µM (inactive) | > 100 µM (inactive) | > 100 µM (inactive) | > 100 µM (inactive) | > 100 µM (inactive) | > 100 µM (inactive) | 29.2 µM (inactive) | > 100 µM (inactive) | – | – | – |
| Cc1cc(N(CCC#N)CCC#N)ccc1/C=C(\NC(=O)/C=C/c1ccccc1)C(=O)N=[N+]=[N-] | 28.5 µM (inactive) | > 100 µM (inactive) | – | > 100 µM (inactive) | 7.01 µM (inactive) | > 100 µM (inactive) | > 100 µM (inactive) | > 100 µM (inactive) | > 100 µM (inactive) | > 100 µM (inactive) | > 100 µM (inactive) | > 100 µM (inactive) | > 100 µM (inactive) | > 100 µM (inactive) | 23 µM (inactive) | > 100 µM (inactive) | > 100 µM (inactive) | – | – | – |
